Source: patent US20140336196A1, “PHOSPHORIC ACID SALTS OF SITAGLIPTIN” (Merck Sharp & Dohme Corp., priority 2011, published 2014)
Where a name gives a salt, the structure may show the parent alone.

Test: Physical stability of the crystalline salt at elevated temperature and humidity
Assay type: physicochemical

N[C@@H](CC(=O)N1CCn2c(nnc2C(F)(F)F)C1)Cc1cc(F)c(F)cc1F [Bis-[(2R)-4-oxo-4-[3-(trifluoromethyl)-5,6-dihydro[1,2,4]triazolo[4,3-a]pyrazin-7(8H)-yl]-1-(2,4,5-trifluorophenyl)butan-2-amine]phosphoric acid trihydrate salt]
stability at elevated temperature and humidity (elevated temperature and humidity (general statement)): unexpectedly stable
physical stability (solid crystalline salt, 40° C. at 75% relative humidity for 2 weeks): physically stable
